From paper PMC9890130 (Clinical cancer research : an official journal of the …, 2023)

Legend:
[1] = Biodistribution of [^68Ga]Ga-DK385; type: in vivo, mice; details: mouse, iv, 50 uCi, total radioactivity
[2] = test system: BFTC909 xenografts; assay: [^68Ga]Ga-DK223 PET-CT of BFTC909 xenografts after aPD-L1 treatment; type: in vivo, NSG mice
[3] = test system: BFTC909 cells; assay: [^68Ga]Ga-DK223 uptake in BFTC909 cells with and without aPD-L1 mAbs; type: cell-based, human; details: 60 nM mAb
[4] = test system: BFTC909 xenografts; type: in vivo, NSG mice; details: 10 mg/kg; for accessible PD-L1 levels: 120 h of treatment, tumor %ID/g as fraction of saline group; for [^68Ga]Ga-DK223 tumor uptake versus saline controls: 120 h treatment
[5] = cited from earlier work
[6] = 24 h after 10 mg/kg mAb i.v., PET 60 min after tracer

Molecule | tissue to tissue ratio at 1 h ([1]; tumor and blood) | tissue to tissue ratio at 1 h ([1]; tumor and muscle) | tissue uptake at 1 h ([1]; tumor) | [^68Ga]Ga-DK223 uptake in tumors (PET) after mAb treatment [2, 6] | [^68Ga]Ga-DK223 uptake in tumors (PET) after mAb treatment ([2]; 72 h after 10 mg/kg mAb i.v., avelumab compared with durvalumab) | [^68Ga]Ga-DK223 uptake in BFTC909 cells in presence of mAb [3] | reduction of [^68Ga]Ga-DK223 tumor uptake versus saline ([4]; 24 h treatment, P<0.0001) | accessible PD-L1 levels [4] | [^68Ga]Ga-DK223 tumor uptake versus saline controls [4] | half-life [5]
CCCC[C@H]1C(=O)N(C)[C@@H](CCCC)C(=O)N[C@@H](CCCCNC(=O)CCC(C(=O)O)N2CCN(CC(=O)O)CCN(CC(=O)O)CCN(CC(=O)O)CC2)C(=O)N[C@H](C(=O)NCC(N)=O)CSCC(=O)N[C@@H](Cc2ccc(O)cc2)C(=O)N(C)[C@@H](C)C(=O)N[C@@H](CC(N)=O)C(=O)N2CCC[C@H]2C(=O)N[C@@H](Cc2c[nH]cn2)C(=O)N[C@@H](CCC(=O)O)C(=O)N2C[C@H](O)C[C@H]2C(=O)N[C@@H](Cc2c[nH]c3ccccc23)C(=O)N[C@@H](CO)C(=O)N[C@@H](Cc2cn(CC(=O)O)c3ccccc23)C(=O)N1C (stereo partly drawn) [[^68Ga]Ga-DK385, metal not drawn] | 2.32 ± 0.38 | 19.9 ± 2.15 | 8.5 ± 1.67 %ID/g | – | – | – | – | – | – | –
avelumab | – | – | – | significantly lower uptake | increased | less than 1% | more than 80% | increase in accessible PD-L1 levels | no significant differences | 6.1 days
durvalumab | – | – | – | significantly lower uptake | – | less than 1% | – | less than 10% | continued reduction in accessible target levels | 18 days
